The record followed here is patent publication US7498343B2, “Mycobacterial inhibitors” (priority 2002, dated 2009).

For assay [1], the system named is Mycobacterium tuberculosis (strain H37RV). Nature of the assay: In-vitro method for testing compounds against M. tuberculosis (resazurin growth inhibition, MIC). Format: cell-based. Conditions: MIC data representing IC90's, 7 days incubation, resazurin fluorescence.
The subject of assay [2] is M. Smegmatis ATCC607. Nature of the assay: In-vitro method for testing compounds for anti-bacterial activity against strain M. smegmatis ATCC607 (Alamar Blue growth inhibition). The conditions noted are these: M. smegmatis ATCC607; pIC50 = -logIC50, IC50 in M, 50% inhibitory concentration for bacterial growth; 48 hours incubation. It counts as cell-based. The protocol:
C.2. In-vitro Method for Testing Compounds for Anti-bacterial Activity Against Strain M. Smegmatis ATCC607. […] Subsequently, stock solutions (7.8×final test concentration) of compounds were added in 45 μl volumes to a series of duplicate wells in column 2 so as to allow evaluation of their effects on bacterial growth. Serial five-fold dilutions (45 μl in 180 μl) were made directly in the microtiter plates from column 2 to 11 using a customised robot system (Zymark Corp., Hopkinton, Mass.). Pipette tips were changed after every 3 dilutions to minimize pipetting errors with high hydrophobic compounds. Untreated control samples with (column 1) and without (column 12) inoculum were included in each microtiter plate. Approximately 250 CFU per well of bacteria inoculum, in a volume of 100 μl in 2.8×Mueller-Hinton broth medium, was added to the rows […]. The same volume of broth medium without inoculum was added to column 12 in row A to H. The cultures were incubated at 37° C. for 48 hours in a humidified 5% CO2 atmosphere (incubator with open air valve and continuous ventilation). At the end of incubation, two days after inoculation, the bacterial growth was quantitated fluorometrically. Therefore Alamar Blue (10×) was added to all wells in a volume of 20 μl and plates were incubated for another 2 hours at […] The fluorescence was read in a computer-controlled fluorometer (Cytofluor, Biosearch) at an excitation wavelength of 530 nm and an emission wavelength of 590 nm (gain 30). The % growth inhibition achieved by the compounds was calculated according to standard methods.
(In general: Resazurin is reduced to fluorescent resorufin, in cell work by metabolically active cells.)

Regarding `COc1nc2ccccc2cc1C(c1ccccc1)C(O)(CCN(C)C)c1cccc2ccccc12` (racemic) [Compound 92], in assay [1], the MIC is reported as 7.55 microgram/ml. The pIC50 in assay [2] amounted to 6.5.
Turning to `COc1nc2ccccc2cc1C(c1ccccc1)C(O)(CCN(C)C)c1cccc(F)c1` (racemic) [Compound 93], the MIC in assay [1] came to 35.31 microgram/ml. Besides, the pIC50 in assay [2] stood at 4.8.
`COc1nc2ccccc2cc1C(c1ccccc1)C(O)(CCN(C)C)c1cccc(F)c1` (racemic) [Compound 94]: the MIC in assay [1] came out at 1.77 microgram/ml. The pIC50 in assay [2] turned out to be 7.9.
In the same order, the values of `COc1nc2ccc(Br)cc2cc1C(c1ccccc1)C(O)(CCc1ccccc1)CCN(C)C` (racemic) [Compound 95] are 16.87 microgram/ml and 6.9.
The compound `COc1nc2ccc(Br)cc2cc1C(c1ccccc1)C(O)(CC[N+](C)(C)[O-])c1cccc2ccccc12` (racemic) [Compound 101] displayed an MIC in assay [1] of 9.06 microgram/ml. In assay [2], this compound returned a negative-log IC50 (pIC50) of 5.8.
In the same order, the values of `COc1nc2ccc(Br)cc2cc1C(c1ccccc1)C(O)(CC[N+](C)(C)C)c1cccc2ccccc12.[I-]` (racemic) [Compound 103] are 5.54 microgram/ml and 5.9.
In the same order, the values of `COc1nc2ccc(Br)cc2cc1C(c1ccccc1)C(O)(CCN1CCOCC1)c1ccccc1` (racemic) [Compound 123] are 54.75 microgram/ml and 4.2.
In the same order, the values of `COc1nc2ccc(Br)cc2cc1C(c1ccccc1)C(O)(CCN1CCOCC1)c1ccccc1` (racemic) [Compound 124] are 54.75 microgram/ml and 5.3.
For the compound `COc1nc2ccc(Br)cc2cc1C(c1ccccc1)C(O)(CCN1CCN(C)CC1)c1ccc2ccccc2c1` (racemic) [Compound 136], in assay [1], the MIC was 16.81 microgram/ml. Besides, the pIC50 in assay [2] stood at 6.2.
Turning to `COc1nc2ccc(Br)cc2cc1C(c1ccccc1)C(O)(CCN1CCN(C)CC1)c1ccc2ccccc2c1` (racemic) [Compound 137], in assay [1], the MIC is given as 42.23 microgram/ml. In assay [2], this compound yielded a pIC50 of 4.6.
For the compound `COc1nc2ccc(Br)cc2cc1C(c1ccccc1)C(O)(CCN(C)C)c1ccc(F)c(F)c1` (racemic) [Compound 195], in assay [1], the MIC is 6.82 microgram/ml. The compound also registered a pIC50 in assay [2] of 6.5.
`COc1nc2ccc(Br)cc2cc1C(c1ccccc1)C(O)(CCN(C)C)c1ccc(F)c(F)c1` (racemic) [Compound 196]: in assay [1], the MIC came out at 1.71 microgram/ml. Besides, in assay [2], the pIC50 came out at 6.6.
In the case of `COc1nc2ccc(Br)cc2cc1C(c1ccc(F)cc1)C(O)(CCN(C)C)c1cccc2ccccc12` (racemic) [Compound 205], the MIC in assay [1] is given as 4.56 microgram/ml. Further, in assay [2], the pIC50 is reported as 7.2.
`COc1nc2ccc(Br)cc2cc1C(c1ccc(F)cc1)C(O)(CCN(C)C)c1cccc2ccccc12` (racemic) [Compound 206] displayed an MIC in assay [1] of 9.09 microgram/ml. Further, the pIC50 in assay [2] was determined as 6.5.
In assay [1], `COc1nc2ccc(F)cc2cc1C(c1ccccc1)C(O)(CCN(C)C)c1cc(F)cc(F)c1` (racemic) [Compound 207] showed an MIC of 48.05 microgram/ml. In assay [2], this compound returned a pIC50 of 5.2.
In assay [1], `COc1nc2ccc(F)cc2cc1C(c1ccccc1)C(O)(CCN(C)C)c1cc(F)cc(F)c1` (racemic) [Compound 208] showed an MIC of 0.38 microgram/ml. The pIC50 in assay [2] turned out to be 7.9.
In turn, `COc1nc2ccc(Br)cc2cc1C(c1ccccc1)C(O)(CCN(C)C)c1ccc(Cl)cc1` (single isomer, unassigned) [Compound 16] displayed an MIC in assay [1] of 0.34 microgram/ml. The compound also had a negative logarithm of the IC50 (pIC50) in assay [2] of 6.8.
As to `COc1nc2ccc(Br)cc2cc1C(c1ccccc1)C(O)(CCN(C)C)c1ccc(Cl)cc1` (single isomer, unassigned) [Compound 17], the MIC in assay [1] worked out at 1.71 microgram/ml. For the same compound, the pIC50 in assay [2] is 6.5.
As to `COc1nc2ccc(Br)cc2cc1C(c1ccccc1)C(O)(CCN(C)C)c1cccs1` (single isomer, unassigned) [Compound 20], in assay [1], the MIC was 40.63 microgram/ml. This compound came in with a pIC50 in assay [2] of 5.9.
Take `COc1nc2ccc(Br)cc2cc1C(c1ccccc1)C(O)(CCN(C)C)c1cccs1` (single isomer, unassigned) [Compound 21]: in assay [1], the MIC is recorded as 16.17 microgram/ml. Also, the pIC50 in assay [2] amounted to 5.4.
`COc1nc2ccc(C)cc2cc1C(c1ccccc1)C(O)(CCN(C)C)c1ccccc1` (single isomer, unassigned) [Compound 22]: in assay [1], the MIC is given as 1.11 microgram/ml. The compound further yielded a pIC50 in assay [2] of 7.2.
Take `COc1nc2ccc(C)cc2cc1C(c1ccccc1)C(O)(CCN(C)C)c1ccccc1` (single isomer, unassigned) [Compound 23]: the MIC in assay [1] is 8.79 microgram/ml. In assay [2], this compound returned a pIC50 of 6.4.
In assay [1], `COc1nc2ccc(Br)cc2cc1C(c1ccccc1)C(O)(CCN(C)C)c1ccsc1` (single isomer, unassigned) [Compound 24] came in with an MIC of 1.62 microgram/ml. Moreover, the pIC50 in assay [2] came out at 7.2.
Consider `COc1nc2ccc(Br)cc2cc1C(c1ccccc1)C(O)(CCN(C)C)c1ccsc1` (single isomer, unassigned) [Compound 25], for which the MIC in assay [1] is listed as 20.36 microgram/ml. In assay [2], this compound registered a pIC50 of 5.2.
In the same order, the values of `COc1nc2ccc(-c3ccccc3)cc2cc1C(c1ccccc1)C(O)(CCN(C)C)c1ccccc1` (single isomer, unassigned) [Compound 26] are 1.00 microgram/ml and 7.2.
For `COc1nc2ccc(-c3ccccc3)cc2cc1C(c1ccccc1)C(O)(CCN(C)C)c1ccccc1` (single isomer, unassigned) [Compound 27], the MIC in assay [1] is 7.97 microgram/ml. Besides, the pIC50 in assay [2] was determined as 5.9.
In the same order, the values of `COc1nc2ccc(F)cc2cc1C(c1ccccc1)C(O)(CCN(C)C)c1ccccc1` (single isomer, unassigned) [Compound 28] are 1.41 microgram/ml and 7.3.
For `COc1nc2ccc(F)cc2cc1C(c1ccccc1)C(O)(CCN(C)C)c1ccccc1` (single isomer, unassigned) [Compound 29], the MIC in assay [1] is 44.46 microgram/ml. This compound also displayed a pIC50 in assay [2] of 5.9.
With `COc1nc2ccc(Cl)cc2cc1C(c1ccccc1)C(O)(CCN(C)C)c1ccccc1` (single isomer, unassigned) [Compound 30], the MIC in assay [1] is recorded as 1.46 microgram/ml. Moreover, the pIC50 in assay [2] is recorded as 7.8.
In assay [1], `COc1nc2ccc(Cl)cc2cc1C(c1ccccc1)C(O)(CCN(C)C)c1ccccc1` (single isomer, unassigned) [Compound 31] had an MIC of 7.31 microgram/ml. In assay [2], the negative logarithm of the IC50 (pIC50) stood at 5.8.
The compound `CSc1nc2ccc(Br)cc2cc1C(c1ccccc1)C(O)(CCN(C)C)c1ccccc1` (single isomer, unassigned) [Compound 32] displayed an MIC in assay [1] of 0.33 microgram/ml. Further, in assay [2], the pIC50 is on record as 7.4.
`CSc1nc2ccc(Br)cc2cc1C(c1ccccc1)C(O)(CCN(C)C)c1ccccc1` (single isomer, unassigned) [Compound 33] came in with an MIC in assay [1] of 8.27 microgram/ml. This compound also yielded a negative-log IC50 (pIC50) in assay [2] of 6.0.

The pIC50 is the IC50 on a negative log10 scale, so that one unit is a factor of ten. Read a high pIC50 as a low IC50.
